34 compounds from patent US3997557A, “Substituted N-aminoalkylpyrroles” (American Hoechst Corporation, priority 1974, dated 1976) can be followed below.

Counter-ions that a name gives are not always drawn.

One test has as its system central nervous system. Description: Mouse observation procedure of S. Irwin, central nervous system depressant effects (tranquilizer). It counts as in vivo. The settings on record: male COBS mice, behavior and reflex depression, muscle relaxation, read-out: minimum effective dose (MED)/Kilogram of body weight. The procedure:
The compounds of the invention are useful as tranquilizers because of their depressant effects on the central nervous system. The depressant effects on the central nervous system were evaluated according to the mouse observation procedure of S. Irwin, Psychopharmacologia, 13, 222 (1968). Male COBS mice are dosed with the drug, and its effects on behavior and reflex depression together with muscle relaxation determined by the degree of deviation from control scores, with activity expressed in terms of minimum effective dose (MED). The effectiveness of compounds of the invention as tranquilizers is illustrated in Table I below.

The test system of test [1] is carrageenin-induced rat paw edema. Briefly: Carrageenin-induced rat paw edema antiinflammatory assay. It is filed as in vivo. The settings on record: 200 mg/kg of body weight. The source says:
The compounds of this invention are useful as antiinflammatory agents because of their ability to suppress inflammation in mammals. […] Exp. Biol. Med. III, 544 (1962)].

A further test concerns isolated rabbit atrium. Briefly: Isolated rabbit atrium, increase in functional refractory period (antiarrhythmic). The settings on record: Oryctolagus cuniculus; for activation at 10 µM: 10^-5 molar; for activation at 20 µM: 2 × 10^-5 molar; for activation at 1 µM: 10^-6 molar. The method, then:
The compounds of the invention are useful as antiarrhythmic agents because of their ability to alleviate cardiac arrhythmias. […] 198] wherein the compounds effect an increase in the functional refractory period. Compounds are dissolved in Krebs-Henseleit solution, and the percent change in the functional refractory period is monitored with an oscilloscope. […] Similarly at a concentration of 10^-^6 molar 1-(3-dimethylaminopropyl)-2-(p-bromophenyl)-4,5,6,7-tetrahydroindole hydrochloride and 1-(2-methylaminoethyl)-2-phenyl-1,4,5,6,7,8-hexahydrocyclohepta[b]pyrrole hydrochloride each effect a 150% increase in the functional refractory period.

The test system of test [2] is spontaneous hypertensive rat. Briefly: Lowering of blood pressure in the spontaneous hypertensive rat, indirect tail cuff method. It counts as in vivo. To be noted: 100 mg/kg of body weight. The procedure:
The compounds of this invention are also useful as antihypertensive agents because of their ability to lower blood pressure in mammals. […] 135. For example, at a dose of 100 mg/kg of body weight, the compounds shown in Table III below effect the corresponding decrease in systolic blood pressure.

With `CCNCCn1c(-c2ccccc2)cc2c1CCCCCC2.O=C(O)C(=O)O` [Example 57, 1-(2-ethylaminoethyl)-2-phenyl-4,5,6,7,8,9-hexahydrocycloocta[b]pyrrole oxalate], the minimal effective dose in the test with central nervous system came to 25 mg/kg.

As for `CNCCn1c(-c2cccc(C(F)(F)F)c2)cc2c1CCCC2` [1-(2-methylaminoethyl)-2-(m-trifluoromethylphenyl)-4,5,6,7-tetrahydroindole], in test [1], at 200 mg/kg the inhibition in vivo was 58%.

With `CN(C)CCCn1c(-c2ccc(F)cc2)cc2c1CCCCCC2` [Example 60, 1-(3-dimethylaminopropyl)-2-(p-fluorophenyl)-4,5,6,7,8,9-hexahydrocycloocta[b]pyrrole oxalate], the activation at 10 µM in the test on isolated rabbit atrium is 139%.

`CN(C)CCCn1c(-c2ccc(N)cc2)cc2c1CCCCCC2` [1-(3-dimethylaminopropyl)-2-(p-aminophenyl)-4,5,6,7,8,9-hexahydrocycloocta[b]pyrrole] registered an inhibition in vivo at 200 mg/kg in test [1] of 57%.

Take `CN(C)CCCn1c(-c2ccc(F)cc2)cc2c1CCCCC2.Cl` [Example 55, 1-(3-dimethylaminopropyl)-2-(p-fluorophenyl)-1,4,5,6,7,8-hexahydrocyclohepta[b]pyrrole hydrochloride]: the minimal effective dose with central nervous system worked out at 50 mg/kg.

Regarding `CN(C)CCCn1c(-c2ccccc2)cc2c1CCC2.Cl` [Example 35, 1-(3-dimethylaminopropyl)-2-phenyl-1,4,5,6-tetrahydrocyclopenta[b]pyrrole hydrochloride], in the test with isolated rabbit atrium, the activation at 20 µM was determined as 233%. Also, the minimal effective dose in the test with central nervous system worked out at 50 mg/kg.

With `CCN(CC)CCCn1c(-c2ccccc2)cc2c1CCc1ccccc1-2` [Example 32, hydrochloride], in test [2], the “decrease in systolic blood pressure” value was 40 mm Hg. The inhibition in vivo at 200 mg/kg in test [1] worked out at 72%.

With `CN(C)CCCn1c(-c2ccc(N)cc2)cc2c1CCCCCC2.O.O=C(O)C(=O)O.O=C(O)C(=O)O` [Example 59, 1-(3-dimethylaminopropyl)-2-(p-aminophenyl)-4,5,6,7,8,9-hexahydrocycloocta[b]pyrrole dioxalate monohydrate], the minimal effective dose in the test with central nervous system was 25 mg/kg.

Regarding `CN(C)CCCn1c(-c2cccc(C(F)(F)F)c2)cc2c1CCCC2` [1-(3-dimethylaminopropyl)-2-(m-trifluoromethylphenyl)-4,5,6,7-tetrahydroindole], the minimal effective dose in the test on central nervous system came out at 40 mg/kg.

`CN(C)CCCn1c(-c2ccccc2)cc2c1CCCC2` [Example 6, 1-(3-dimethylaminopropyl)-2-phenyl-4,5,6,7-tetrahydroindole . HCl] came in with an inhibition in vivo at 200 mg/kg in test [1] of 45%.

Consider `CNCCCn1c(-c2ccc(OC)cc2)cc2c1CCCCC2.O=C(O)C(=O)O` [Example 49, 1-(3-methylaminopropyl)-2-(p-methoxyphenyl)-1,4,5,6,7,8-hexahydrocyclohepta[b]-pyrrole oxalate], for which the minimal effective dose in the test with central nervous system worked out at 10 mg/kg.

`c1ccc(-c2cc3c(n2CCN2CCNCC2)CCCC3)cc1` [Example 5, 1-[2-(1-piperazinylethyl)]-2-phenyl-4,5,6,7-tetrahydroindole . dioxalate]: the minimal effective dose in the test on central nervous system was found to be 10 mg/kg.

Regarding `CCNCCn1c(-c2ccccc2)cc2c1CCCC2` [Example 3, 1-(2-ethylaminoethyl)-2-phenyl-4,5,6,7-tetrahydroindole . oxalate], the minimal effective dose with central nervous system came out at 25 mg/kg.

`COc1ccc(-c2cc3c(n2CCCN(C)C)CCCC3)cc1.Cl` [Example 11, 1-(3-dimethylaminopropyl)-2-(p-methoxyphenyl)-4,5,6,7-tetrahydroindole hydrochloride] came in with an activation at 10 µM in the test on isolated rabbit atrium of 300%. This compound displayed an inhibition in vivo at 200 mg/kg in test [1] of 44%. For the same compound, the minimal effective dose with central nervous system was determined as 50 mg/kg.

Regarding `CC(CN(C)C)n1c(-c2ccccc2)cc2c1CCCCC2` (stereo not shown) [Example 38, 1-(1-methyl-2-dimethylaminoethyl)-2-phenyl-1,4,5,6,7,8-hexahydrocyclohepta[b]pyrrole . oxalate], in test [1], the inhibition in vivo at 200 mg/kg turned out to be 58%. For the same compound, in the test with central nervous system, the minimal effective dose was determined as 6 mg/kg.

For the compound `CN(C)CCCn1c(-c2ccccc2)cc2c1-c1ccccc1CC2.Cl` [Example 30, 1-(3-dimethylaminopropyl)-2-phenyl-4,5-dihydrobenz[g]indole hydrochloride], the “decrease in systolic blood pressure” value in test [2] is 24 mm Hg.

Turning to `CC(CN(C)C)n1c(-c2cccc(C(F)(F)F)c2)cc2c1CCCC2` (stereo not shown) [1-(1-methyl-2-dimethylaminoethyl)-2(m-trifluoromethylphenyl)-4,5,6,7-tetrahydroindole . HCl], at 200 mg/kg the inhibition in vivo in test [1] was 46%.

As for `CC(C)NC(C)Cn1c(-c2ccc(Cl)cc2)cc2c1CCCC2.Cl` (stereo not shown) [Example 21, 1-(2-isopropylaminopropyl)-2-(p-chlorophenyl)-4,5,6,7-tetrahydroindole hydrochloride], the minimal effective dose with central nervous system was found to be 50 mg/kg.

In the case of `COc1cc(-c2cc3c(n2CCCN(C)C)CCCCC3)cc(OC)c1OC.Cl` [Example 54, 1-(3-dimethylaminopropyl)-2-(3,4,5-trimethoxyphenyl)-1,4,5,6,7,8-hexahydrocyclohepta[b]pyrrole hydrochloride], the minimal effective dose with central nervous system was 50 mg/kg.

Regarding `CNCCCn1c(-c2ccccc2)cc2c1CCC2.O=C(O)C(=O)O` [Example 34, 1-(3-methylaminopropyl)-2-phenyl-1,4,5,6-tetrahydrocyclopenta[b]pyrrole oxalate], in the test on central nervous system, the minimal effective dose worked out at 25 mg/kg.

With `CC(C)NCCCn1c(-c2ccccc2)cc2c1CCCCC2` [Example 43, 1-(3-isopropylaminopropyl)-2-phenyl-1,4,5,6,7,8-hexahydrocyclohepta[b]pyrrole . oxalate], the minimal effective dose in the test with central nervous system was 37 mg/kg.

In the test with isolated rabbit atrium, `CN(C)CCCn1c(-c2ccc(Br)cc2)cc2c1CCCC2` [Example 12, 2-(p-bromophenyl)-1-(3-dimethylaminopropyl)-4,5,6,7-tetrahydroindole hydrochloride] showed an activation at 1 µM of 150%.

In the case of `CCN(CC)CCn1c(-c2ccccc2)cc2c1CCC(C(C)(C)C)C2.Cl` (stereo not shown) [Example 25, 1-(2-diethylaminoethyl)-2-phenyl-5-(t-butyl)-4,5,6,7-tetrahydroindole hydrochloride], the “decrease in systolic blood pressure” value in test [2] is listed as 30 mm Hg. For the same compound, the minimal effective dose in the test with central nervous system was 20 mg/kg.

`CN(C)CCCn1c(-c2ccc(Cl)cc2)cc2c1CCCC2` [1-(3-dimethylaminopropyl)-2-(p-chlorophenyl)-4,5,6,7-tetrahydroindole] registered an inhibition in vivo at 200 mg/kg in test [1] of 44%.

With `CCN(CC)CCCn1c(-c2ccccc2)cc2c1CCc1ccccc1-2` [1-(3-diethylaminopropyl)-2-phenyl-4,5-dihydrobenz[e]-indole], the minimal effective dose with central nervous system was 20 mg/kg.

Turning to `CN(C)CCCn1c2c(c(-c3ccccc3)c1-c1ccccc1)CCCC2.O.O=C(O)C(=O)O` [Example 28, 1-(3-dimethylaminopropyl)-2,3-diphenyl-4,5,6,7-tetrahydroindole oxalate monohydrate], in the test on central nervous system, the minimal effective dose amounted to 25 mg/kg.

The compound `CN(C)CCn1c(-c2ccccc2)cc2c1CCCC2` [Example 1, 1-(2-dimethylaminoethyl)-2-phenyl-4,5,6,7-tetrahydroindole hydrochloride] yielded an activation at 20 µM in the test on isolated rabbit atrium of 25%. For the same compound, the inhibition in vivo at 200 mg/kg in test [1] is 47%.

In the case of `CNCCn1c(-c2ccccc2)cc2c1CCCCC2.Cl` [Example 36, 1-(2-methylaminoethyl)-2-phenyl-1,4,5,6,7,8-hexahydrocyclohepta[b]pyrrole hydrochloride], the activation at 1 µM with isolated rabbit atrium came to 150%. Also, in the test on central nervous system, the minimal effective dose came out at 50 mg/kg.

`CNCCn1c(-c2cccc(C(F)(F)F)c2)cc2c1CCCC2` [Example 14]: in the test on isolated rabbit atrium, the activation at 20 µM came out at 200%. Also, the minimal effective dose in the test on central nervous system is 25 mg/kg.

In turn, `CCN(CC)CCn1c(-c2ccccc2)cc2c1CCC(C)C2` (stereo not shown) [Example 24, 1-(2-diethylaminoethyl)-2-phenyl-5-methyl-4,5,6,7-tetrahydroindole hydrochloride] gave an activation at 10 µM with isolated rabbit atrium of 208%.

Compound `CC(C)N(CCn1c(-c2ccc(O)cc2)cc2c1CCCC2)C(C)C` [Example 23, 1-(2-diisopropylaminoethyl)-2-(p-hydroxyphenyl)-4,5,6,7-tetrahydroindole] had an inhibition in vivo at 200 mg/kg in test [1] of 44%.

`CN(C)CCCn1c(-c2ccc([N+](=O)[O-])cc2)cc2c1CCCCCC2` [Example 58, 1-(3-dimethylaminopropyl)-2-(p-nitrophenyl)-4,5,6,7,8,9-hexahydrocycloocta[b]-pyrrole hydrochloride] had an activation at 10 µM in the test with isolated rabbit atrium of 125%.

Turning to `CN(C)CCn1c(-c2ccccc2)cc2c1CCCCC2` [Example 37, 1-(2-dimethylaminoethyl)-2-phenyl-1,4,5,6,7,8-hexahydrocyclohepta[b]pyrrole . HCl], the “decrease in systolic blood pressure” value in test [2] is 45 mm Hg.

As for `CN(C)CCCn1c(-c2ccccc2)cc2c1CCCCCC2.Cl` [Example 56, 1-(3-dimethylaminopropyl)-2-phenyl-4,5,6,7,8,9-hexahydrocycloocta[b]pyrrole hydrochloride], the “decrease in systolic blood pressure” value in test [2] turned out to be 50 mm Hg.
